This note sets out measurements from patent US8859491B2 (priority 2011, dated 2014).

A short description of data set [1]: Stability analysis in 100% human plasma (estrogen release). The settings on record: 1 mg/mL, pH 7.4, 37° C.
The target in another data set is T1, glucocorticoid receptor (Homo sapiens, UniProt P04150).
T1 construct: two clones of HeLa cells (ATCC #CCL-2) transfected with murine mammary tumor virus long terminal repeat-driven firefly luciferase; host or cells: HeLa
Nature of the data set: EC50.

The nature of data set [2]: Administration of GLP-1 conjugates to diet induced obese mice (FIGS. 3-10, 12). It is filed as in vivo. The settings on record: for change in blood glucose: FIG. 5b, SEQ ID NO: 1647 at high or low doses, SEQ ID NO: 1651 at high dose; for blood glucose levels: FIG. 7b.
Data set [3] is described as follows: Administration of GLP-1 conjugates to db/db mice (FIG. 2). The class given is in vivo. The settings on record: high dose.
The nature of data set [4]: Example 13: db/db mice, daily sc dosing. The class given is in vivo. The procedure:
Mice (db/db, N=6, average initial body weight=54 g) were subcutaneously injected once per day for four weeks with vehicle or 40 or 400 μg/kg of one of the following:
Body weight was measured after 23 days and the change in body weight was determined (FIG. 2a).

A short description of data set [5]: Example 14: DIO mice, daily sc dosing. The class given is in vivo. As for the experimental part:
Diet-induced obesity (DIO) mice (N=8, 6 mice per group, average initial body weight=58 g) were subcutaneously injected once per day for four weeks with vehicle or 4, 40, or 400 μg/kg of one of the following:
A saline solution comprising 25% (v/v) glucose was injected at a dose of 1.5 g/kg of body weight at the 0 min time point on days 7 and 21. Blood glucose was measured at the 0, 15, 30, 60, and 120 min time points on day 7 and day 21 (FIG. 3a).
Body weight was measured after 23 days and the change in body weight, change in fat mass, and change in lean muscle mass were determined (FIGS. 3b-d).

Data set [6] is described as follows: Example 15: DIO mice, daily sc dosing. The settings on record: high dose, between days 0 and 21. The class given is in vivo. The procedure:
Diet-induced obesity (DIO) mice (N=8, average initial body weight=59 g) were subcutaneously injected once per day for four weeks with vehicle or one of the following: […] Blood glucose levels were measured at the 0, 15, 30, 60, and 120 min time points. FIG. 4a presents data from this experiment. Body weight was measured after 21 days and the change in total body weight and fat mass were determined (FIGS. 4b-c).

Setting [7] is: high dose (400 μg/kg-day), after 23 days.
Setting [8] is: high dose, between days 0 and 14.
The mark [9] stands for this setting: high dose, between days 0 and 21, vs GLP-1(Aib2E16Cex K40) (SEQ ID NO: 1647) alone, FIG. 4d.
Setting [10] is: over a period of 7 days, FIG. 7a.

Non-standard residues stand in square brackets, D forms with d. No end group written: not given here. Aib = CC(C)(N)C(=O)O

T1 sequence (P04150 whole entry, looked up): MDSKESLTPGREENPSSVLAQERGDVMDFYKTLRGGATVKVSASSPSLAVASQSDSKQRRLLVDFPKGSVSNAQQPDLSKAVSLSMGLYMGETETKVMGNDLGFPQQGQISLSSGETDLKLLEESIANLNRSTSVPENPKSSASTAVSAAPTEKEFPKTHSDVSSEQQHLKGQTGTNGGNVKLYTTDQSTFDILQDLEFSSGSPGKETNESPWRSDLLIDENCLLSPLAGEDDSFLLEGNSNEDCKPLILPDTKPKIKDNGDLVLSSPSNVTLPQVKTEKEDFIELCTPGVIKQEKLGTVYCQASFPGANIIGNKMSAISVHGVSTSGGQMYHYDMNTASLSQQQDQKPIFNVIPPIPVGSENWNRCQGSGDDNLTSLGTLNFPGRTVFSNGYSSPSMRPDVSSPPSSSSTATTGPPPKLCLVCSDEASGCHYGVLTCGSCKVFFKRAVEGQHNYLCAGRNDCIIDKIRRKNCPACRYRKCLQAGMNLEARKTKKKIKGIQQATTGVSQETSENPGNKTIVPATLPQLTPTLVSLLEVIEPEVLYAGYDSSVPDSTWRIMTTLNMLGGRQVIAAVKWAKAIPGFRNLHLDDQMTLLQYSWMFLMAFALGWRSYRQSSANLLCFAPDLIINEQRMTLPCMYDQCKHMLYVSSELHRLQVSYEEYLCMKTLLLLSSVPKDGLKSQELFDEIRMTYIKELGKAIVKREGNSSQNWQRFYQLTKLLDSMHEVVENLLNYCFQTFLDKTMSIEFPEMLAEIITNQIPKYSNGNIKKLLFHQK

Consider `CC[C@H](C)[C@H](NC(=O)[C@H](Cc1ccccc1)NC(=O)[C@H](CCC(=O)O)NC(=O)[C@H](CCCCN)NC(=O)[C@H](C)NC(=O)[C@H](C)NC(=O)[C@H](CCC(N)=O)NC(=O)[C@H](CCC(=O)O)NC(=O)[C@H](CCC(=O)O)NC(=O)[C@H](CC(C)C)NC(=O)[C@H](Cc1ccc(O)cc1)NC(=O)[C@H](CO)NC(=O)[C@H](CO)NC(=O)[C@@H](NC(=O)[C@H](CC(=O)O)NC(=O)[C@H](CO)NC(=O)[C@@H](NC(=O)[C@H](Cc1ccccc1)NC(=O)[C@@H](NC(=O)CNC(=O)[C@H](CCC(=O)O)NC(=O)C(C)(C)NC(=O)[C@@H](N)Cc1c[nH]cn1)[C@@H](C)O)[C@@H](C)O)C(C)C)C(=O)N[C@@H](C)C(=O)N[C@@H](Cc1c[nH]c2ccccc12)C(=O)N[C@@H](CC(C)C)C(=O)N[C@H](C(=O)N[C@@H](CCCCN)C(=O)NCC(=O)NCC(=O)N1CCC[C@H]1C(=O)N[C@@H](CO)C(=O)N[C@@H](CO)C(=O)NCC(=O)N[C@@H](C)C(=O)N1CCC[C@H]1C(=O)N1CCC[C@H]1C(=O)N1CCC[C@H]1C(=O)N[C@@H](CO)C(=O)N[C@@H](CCCCNC(=O)CCC(=O)Oc1ccc2c(c1)CC[C@@H]1[C@@H]2CC[C@]2(C)[C@@H](OC(C)=O)CC[C@@H]12)C(N)=O)C(C)C` [GLP-1/Estrogen(3-ester)], for which, in data set [1], the “estrogen release in plasma” value was “substantial estrogen release after 3 hours” and the “time to complete estrogen release in plasma” value is not above 6 h.
On to `CC[C@H](C)[C@H](NC(=O)[C@H](Cc1ccccc1)NC(=O)[C@H](CCC(=O)O)NC(=O)[C@H](CCCCN)NC(=O)[C@H](C)NC(=O)[C@H](C)NC(=O)[C@H](CCC(N)=O)NC(=O)[C@H](CCC(=O)O)NC(=O)[C@H](CCC(=O)O)NC(=O)[C@H](CC(C)C)NC(=O)[C@H](Cc1ccc(O)cc1)NC(=O)[C@H](CO)NC(=O)[C@H](CO)NC(=O)[C@@H](NC(=O)[C@H](CC(=O)O)NC(=O)[C@H](CO)NC(=O)[C@@H](NC(=O)[C@H](Cc1ccccc1)NC(=O)[C@@H](NC(=O)CNC(=O)[C@H](CCC(=O)O)NC(=O)C(C)(C)NC(=O)[C@@H](N)Cc1c[nH]cn1)[C@@H](C)O)[C@@H](C)O)C(C)C)C(=O)N[C@@H](C)C(=O)N[C@@H](Cc1c[nH]c2ccccc12)C(=O)N[C@@H](CC(C)C)C(=O)N[C@H](C(=O)N[C@@H](CCCCN)C(=O)NCC(=O)NCC(=O)N1CCC[C@H]1C(=O)N[C@@H](CO)C(=O)N[C@@H](CO)C(=O)NCC(=O)N[C@@H](C)C(=O)N1CCC[C@H]1C(=O)N1CCC[C@H]1C(=O)N1CCC[C@H]1C(=O)N[C@@H](CO)C(=O)NC(C(N)=O)C(C)(C)SSCCNC(=O)OCC(=O)[C@@]1(O)[C@H](C)C[C@H]2[C@@H]3CCC4=CC(=O)C=C[C@]4(C)[C@@]3(F)[C@@H](O)C[C@@]21C)C(C)C` (stereo partly drawn) [[Aib2, E16]GLP-1-CEX-Pen40(S—SCH2CH2NHCO—O-DEX)], for which the 50% effective concentration (EC50) (in general, the midpoint of the concentration-response curve) on glucocorticoid receptor was 73.3 µM.
`CC[C@H](C)[C@H](NC(=O)[C@H](Cc1ccccc1)NC(=O)[C@H](CCC(=O)O)NC(=O)[C@H](CCCCN)NC(=O)[C@H](C)NC(=O)[C@H](C)NC(=O)[C@H](CCC(N)=O)NC(=O)[C@H](CCC(=O)O)NC(=O)[C@H](CCC(=O)O)NC(=O)[C@H](CC(C)C)NC(=O)[C@H](Cc1ccc(O)cc1)NC(=O)[C@H](CO)NC(=O)[C@H](CO)NC(=O)[C@@H](NC(=O)[C@H](CC(=O)O)NC(=O)[C@H](CO)NC(=O)[C@@H](NC(=O)[C@H](Cc1ccccc1)NC(=O)[C@@H](NC(=O)CNC(=O)[C@H](CCC(=O)O)NC(=O)C(C)(C)NC(=O)[C@@H](N)Cc1c[nH]cn1)[C@@H](C)O)[C@@H](C)O)C(C)C)C(=O)N[C@@H](C)C(=O)N[C@@H](Cc1c[nH]c2ccccc12)C(=O)N[C@@H](CC(C)C)C(=O)N[C@H](C(=O)N[C@@H](CCCCN)C(=O)NCC(=O)NCC(=O)N1CCC[C@H]1C(=O)N[C@@H](CO)C(=O)N[C@@H](CO)C(=O)NCC(=O)N[C@@H](C)C(=O)N1CCC[C@H]1C(=O)N1CCC[C@H]1C(=O)N1CCC[C@H]1C(=O)N[C@@H](CO)C(=O)NC(CCSSCCNC(=O)OCC(=O)[C@@]1(O)[C@H](C)C[C@H]2[C@@H]3CCC4=CC(=O)C=C[C@]4(C)[C@@]3(F)[C@@H](O)C[C@@]21C)C(N)=O)C(C)C` (stereo partly drawn) [[Aib2, E16]GLP-1-CEX-homoCys40(S—SCH2CH2NHCO—O-DEX)]: the EC50 on glucocorticoid receptor is 65.4 µM.
“GLP-1(Aib^2A^22CexK^40)/Estrogen(17-ester) (H[Aib]EGTFTSDVSSYLEGQAAKEAIAWLVKGGPSSGAPPPSK-NH2; not fully specified (residue 40)) [SEQ ID NO: 1656]”: the “change in body weight” value in data set [2] (high dose, FIG. 3b) is “greatest decrease”; in data set [3] (FIG. 2a), “slightly greater decrease in body weight than mice that were administered GLP-1 alone, but similar to vehicle”. Moreover, in data set [2] (high dose, FIG. 3c), the “change in fat mass” value is listed as “greatest decrease”. In addition, the “change in lean muscle mass” value in data set [2] (high dose, FIG. 3d) was “least amount of change”. The “changes in blood glucose” value in data set [2] (high dose, between days 0 and 14, FIG. 3e) is given as “greatest decrease”. Further, the blood glucose levels entry in data set [3] (between days 0 and 14, FIGS. 2b and 2c) is listed as “greatest decrease”.
As to “GLP-1(Aib^2A^22CexK^40)/Estrogen(17-ester): A22 GLP-1 analog conjugated to estrogen by 17-ester (H[Aib]EGTFTSDVSSYLEGQAAKEAIAWLVKGGPSSGAPPPSK-NH2; not fully specified (residue 40))”, the “change in body weight” value in data set [4] (setting [7]) is “greater decrease in body weight then mice that were administered GLP-1 alone”; in data set [5] (setting [7]), “greatest decrease in body weight”. The cumulative food intake result in data set [4] (high dose, 23 days) is on record as “consumed less food than those that were administered GLP-1 alone”; in data set [5] (high dose, 23 days), “consumed the least amount of food”. Moreover, the blood glucose levels entry in data set [4] (setting [8]) is given as “greatest decrease in blood glucose levels”. The “change in fat mass” value in data set [5] (high dose, after 23 days) is “greatest decrease in body weight and fat mass”. Also, the “change in lean muscle mass” value in data set [5] (high dose, after 23 days) is recorded as “least amount of lean muscle mass loss”. The change blood glucose entry in data set [5] (setting [8]) was “greatest decrease in blood glucose levels”.
On to “GLP-1(Aib^2E^16Cex K^40) (H[Aib]EGTFTSDVSSYLEEQAAKEFIAWLVKGGPSSGAPPPSK-NH2) [SEQ ID NO: 1647]”, for which the “change in blood glucose” value in data set [2] was “greatest change”.
Turning to “GLP-1(Aib^2E^16Cex K^40)/Estrogen(3-ester) (H[Aib]EGTFTSDVSSYLEEQAAKEFIAWLVKGGPSSGAPPPSK-NH2; not fully specified (residue 40)) [SEQ ID NO: 1658]”, in data set [2] (between days 0 and 7, FIG. 8b), the “change in blood glucose levels” value is reported as “greatest change”.
For the compound “GLP-1(Aib^2E^16K^40Cex)/Estrogen(3-ether) (H[Aib]EGTFTSDVSSYLEEQAAKEFIAWLVKGGPSSGAPPPSK-NH2; not fully specified (residue 40)) [SEQ ID NO: 1651]”, the “change in blood glucose levels” value in data set [6] is given as “greater change in blood glucose levels”; in data set [2] (between days 0 and 7, FIG. 6c) it was “greatest change”; in data set [2] (setting [9]) it was “greater change”. Also, in data set [2], the “change in blood glucose” value was “greatest change”. For the same compound, the total body weight entry in data set [2] (setting [10]) was “greatest decrease”. In addition, the blood glucose levels entry in data set [2] (over a period of 7 days) is on record as “greatest decrease”.
For “GLP-1(Aib^2E^16K^40Cex)/Estrogen(17-ester) (H[Aib]EGTFTSDVSSYLEEQAAKEFIAWLVKGGPSSGAPPPSK-NH2; not fully specified (residue 40)) [SEQ ID NO: 1655]”, the “change in blood glucose levels” value in data set [6] was “greater change in blood glucose levels”; in data set [2] (between days 0 and 7, FIG. 6c), “greatest change”; in data set [2] (setting [9]) it was “greater change”. Further, in data set [2] (setting [10]), the total body weight entry is “greatest decrease”. In data set [2] (over a period of 7 days), the blood glucose levels result is reported as “greatest decrease”.
Regarding “d-amino acid containing GLP-1/Estrogen ester conjugate: d-amino acid containing GLP-1/Estrogen conjugate, estrogen covalently linked as ester that was unstable in vivo ([dA][Aib][dE]G[dT][dF][dT][dS][dD][dV][dS][dS][dY][dL][dE]G[dQ][dA][dA][dK][dE][dA][dI][dA][dW][dL][dV][dK]GG[dP][dS][dS]G[dA][dP][dP][dP][dS]K-NH2; not fully specified (residue 40))”, the total body weight result in data set [2] (FIG. 10a) is recorded as “greatest decrease”. In addition, the “change in blood glucose levels” value in data set [2] (between days 0 and 7, vs comparable d-amino acid peptide with stable estrogen conjugate, FIG. 10b) is “greater change”.
